Reference: patent US20100249064A1, “METHODS AND COMPOSITIONS FOR TREATING DISEASES AND CONDITIONS INVOLVING HIGHER MOLECULAR WEIGHT HYALURONAN” (University of Chicago, priority 2007, published 2010)
Entries after “also recorded” stand apart in the source; their conditions may differ.

Columns and labels:
[1] = tested on: Human pulmonary artery EC; assay: Transendothelial electrical resistance (TER) of HA-treated EC monolayers, Example 1; type: cell-based; settings: for change in transmonolayer electrical resistance (TER): 1 nM, 10 nM or 100 nM HA, serum starved EC; for effect of pretreatment of HA by boiling or proteinase K digestion on HA-induced EC TER: HA boiled or proteinase K digested; for effect of hyaluronidase SD treatment of HA on HA-induced EC TER: HA treated with hyaluronidase SD
Protocol: Measurement of TransEC Electrical Resistance (TER)—EC were grown to confluence in polycarbonate wells containing evaporated gold microelectrodes. TER measurements were performed using an electrical cell-substrate impedance sensing system (Applied Biophysics, Troy, N.Y.) as described (Garcia et al., 2001). TER values from each microelectrode were pooled at discrete time points and plotted versus time as the mean±S.E.

[2] = biological target: T1, purified HABP2 (Homo sapiens, UniProt Q14520); assay: HABP2 protease assay (QuantiCleave, succinylated casein); type: biochemical; settings: purified HABP2, various concentrations of HA
T1 construct: host or cells: human pulmonary endothelial cells (EC); secreted into the medium, immunoprecipitated with anti-HABP2 antibody
Protocol: HABP2 protease assay. Protease activity is measured using the QuantiCleave™ Protease Assay Kit (Pierce). Briefly, the immunobeads are incubated with succinylated casein for one hour followed by development with TNBSA (2,4,6-trinitrobenzene sulfonic acid) and read at 450 nm.
HABP2 protein purification and protease activity determination. Media from HABP2 overexpression vector-transfected EC (Origene) was immunoprecipitated with anti-HABP2 antibody-conjugated Sepharose beads (Sigma). The immunobeads were then extensively washed in 50 mM Borate, pH=8.5 and eluted with 1M NaCl with 0.1% NP-40 and dialyzed against a 1,000 fold excess of 50 mM Borate, pH=8.5. Protein assays were performed to quantitate total protein. The purified protein was run on SDS-PAGE and either immunoblotted with anti-HABP2 antibody (Novus Biologicals) or stained with Imperial™ protein stain (Pierce) to check for purity. Protease activity was measured using the QuantiCleave™ Protease Assay Kit (Pierce). Briefly, the immunobeads were incubated with succinylated casein for one hour followed by development with TNBSA (2,4,6-trinitrobenzene sulfonic acid) and read at 450 nm.
Determination of the role of HMW-HA/HABP2/C1INH interactions in regulating angiogenesis in vitro. Human pulmonary EC (Cambrex), grown in EBM-2 complete medium (Cambrex) at 37° C. in a humidified atmosphere of 5% CO2, 95% air, with passages 6-10 used for experimentation will be treated with or without 100 nM HMW-HA and/or 100 nM VEGF in the presence or absence of HABP2 and/or C1INH overexpression vectors (Origene), exogenous purified recombinant HABP2 polyanion binding domain and/or C1INH (Novus Biologicals) and/or siRNA (scramble, HABP2 or C1INH). For HABP2 protease activity determination, media from HABP2 overexpressing EC (see above) was immunoprecipitated with anti-HABP2 antibody-conjugated Sepharose beads (Sigma). The immunobeads were then extensively washed in 50 mM Borate, pH=8.5 and protease activity was measured using the QuantiCleave™ Protease Assay Kit (Pierce). Briefly, the immunobeads were incubated with succinylated casein for one hour followed by development with TNBSA (2,4,6-trinitrobenzene sulfonic acid) and read at 450 nm.

[3] = tested on: Human pulmonary artery EC; assay: Cortical actin (phalloidin) staining and quantitation; type: cell-based; settings: for cortical actin ring formation (F-actin localization): early, timepoint 5 min
Protocol: Immunofluorescence Microscopy and Cortical Actin Quantitation—Polymerized actin rearrangement was assessed first with Texas Red-conjugated phalloidin (Invitrogen (Molecular Probes), Eugene, Oreg.) and then analyzed using a Nikon Eclipse TE 300 microscope as described (Garcia et al., 2001). ImageQuant™ software (Amersham Biosciences Corp. (Piscataway, N.J.)) was used to analyze the computer recorded .tiff images. A standardized average grey value (SAGV) was generated for total phalloidin staining versus cortical phalloidin staining for each cell (Singleton et al., 2005). The following equation was used to calculate percent cortical actin staining: ((cortical actin SAGV×area) divided by (total actin SAGV×area))×100. At least ten cells per sample were analyzed. Experiments were performed in triplicate.
Immunofluorescence Microscopy. EC were serum-starved for one hour prior to the addition of 100 nM high MW HA. EC were then fixed in 4% paraformaldehyde, permeablized with ethanol and incubated with specific protein or interest primary antibody for 30 min followed by either FITC or Texas Red-conjugated secondary (Invitrogen (Molecular Probes), Eugene, Oreg.) and analyzed using a Nikon Eclipse TE 300 microscope as described (Garcia et. al., 2001).

[4] = tested on: S1P1 and S1P3 Receptor; assay: Tyrosine/serine/threonine phosphorylation of S1P receptors; type: cell-based, human; settings: 100 nM HA
Protocol: Determination of Tyrosine/Serine/Threonine Phosphorylation of the S1P1 and S1P3 Receptor—Immunoprecipitation of solubilized proteins in IP buffer B (see above) took place with either rabbit anti-S1P1 receptor or mouse anti-S1P3 receptor antibody, which was followed by SDS-PAGE in 4-15% polyacrylamide gels and transfer onto Immobilon™ membranes (Millipore Corp., Bedford, Mass.). Following blockage of nonspecific sites with 5% bovine serum albumin, the blots were incubated with either rabbit anti-S1P1 antibody, mouse anti-S1P3 antibody, mouse anti-phospho-tyrosine, rabbit anti-phospho-serine antibody or rabbit anti-phospho-threonine antibody, and then incubated with horseradish peroxidase (HRP)-labeled goat anti-rabbit or goat anti-mouse IgG. Enhanced chemiluminescence (Amersham Biosciences) for visualization of immunoreactive bands then took place.

T1 sequence (Q14520 24-560): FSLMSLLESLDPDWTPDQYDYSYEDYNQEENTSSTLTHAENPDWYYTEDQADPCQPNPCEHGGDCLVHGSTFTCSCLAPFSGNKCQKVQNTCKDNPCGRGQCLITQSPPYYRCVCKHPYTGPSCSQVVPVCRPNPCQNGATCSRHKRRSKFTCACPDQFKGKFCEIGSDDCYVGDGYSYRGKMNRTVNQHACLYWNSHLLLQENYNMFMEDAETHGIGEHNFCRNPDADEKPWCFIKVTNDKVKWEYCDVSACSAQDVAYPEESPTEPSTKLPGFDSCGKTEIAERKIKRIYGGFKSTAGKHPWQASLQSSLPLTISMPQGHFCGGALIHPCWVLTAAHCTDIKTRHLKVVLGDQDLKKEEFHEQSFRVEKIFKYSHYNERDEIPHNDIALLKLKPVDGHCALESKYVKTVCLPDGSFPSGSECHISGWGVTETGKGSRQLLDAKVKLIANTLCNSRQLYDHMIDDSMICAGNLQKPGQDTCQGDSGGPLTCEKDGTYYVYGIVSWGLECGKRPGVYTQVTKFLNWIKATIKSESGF

hyaluronan [HMW-HA] was tested, and the “change in transmonolayer electrical resistance (TER)” value [1] was “gradual and sustained rise in transmonolayer electrical resistance (TER) in a dose-dependent fashion”, the “effect of pretreatment of HA by boiling or proteinase K digestion on HA-induced EC TER” value [1] was “little effect” and the “effect of hyaluronidase SD treatment of HA on HA-induced EC TER” value ([1]; listed as High MW HA) was “blocked the effects of High MW HA”. The HABP2 protease activity [2] was “inhibits”, the HABP2 protease activity ([2]; listed as High molecular weight hyaluronan) was “directly binds and inhibits the enzymatic activity of HABP2” and the HABP2 protease activity ([2]; listed as high MW hyaluronan) was “reduced its activity”. The “cortical actin ring formation (F-actin localization)” value [3] was “induced prominent cortical actin ring formation early on” and the S1P receptor phosphorylation [4] was “promoted AKT1-mediated threonine phosphorylation of S1P1 receptor”.
With hyaluronan [LMW-HA, reference compound] the “change in transmonolayer electrical resistance (TER)” value [1] was “biphasic changes in TER with an initial rapid increase in barrier enhancement followed by significant and prolonged barrier disruption”, the “effect of pretreatment of HA by boiling or proteinase K digestion on HA-induced EC TER” value [1] was “little effect” and the “effect of hyaluronidase SD treatment of HA on HA-induced EC TER” value ([1]; listed as Low MW HA) was “blocked the effects of Low MW HA”. The HABP2 protease activity [2] was “activates; also recorded: enhances”, the HABP2 protease activity ([2]; listed as low MW hyaluronan) was “increased the protease activity of purified HABP2 in a dose-dependent manner” and the “cortical actin staining / F-actin stress fiber formation” value ([3]; challenge for 30 min) was “loss of cortical actin staining with increased F-actin stress fiber formation”. The “cortical actin ring formation (F-actin localization)” value [3] was “induced prominent cortical actin ring formation early on” and the S1P receptor phosphorylation [4] was “induced sequential AKT1-mediated S1P1 and Src/ROCK1/2-mediated S1P3 receptor phosphorylation/activation”.
